Data as given in US20230348520A1, “COMPOUND COMPRISING BETA-NICOTINAMIDE MONONUCLEOTIDE OR PHARMACOLOGICALLY ACCEPTABLE SALT THEREOF, AND METHOD FOR EVALUATING QUALITY AND METHOD FOR ASSESSING ENZYMATIC REACTIVITY OF SAID COMPOUND” (ORIENTAL YEAST CO., LTD., priority 2020, published 2023).
Values belong to the molecule of their own block, whether it stands above or below them.

How the values were obtained:
[1] = biological target: R-LDH5 (lactate dehydrogenase (LDH) 5, SEQ ID NO: 1, derived from skeletal muscle) (Oryctolagus cuniculus, UniProt P13491, L277I/T249S); assay: Evaluation of enzymatic reactivity with lactate dehydrogenase R-LDH5 (Test Examples 1 and 2); format: biochemical; settings: 19 mM β-NMN in R1 reagent; R-LDH5 245 U/mL final; 37° C.; 340 nm; one unit = 0.1 mAbs change in absorbance per minute; average of three measurements
Excerpt: The lactate dehydrogenase is preferably lactate dehydrogenase derived from mammalian skeletal muscle, and more preferably lactate dehydrogenase (LDH) 5 (hereinafter may be referred to as “R-LDHS”). The R-LDHS has an amino acid sequence as set forth in SEQ ID NO: 1, is composed of a tetramer of sub-units, and is derived from skeletal muscle. Other lactate dehydrogenases of any mammal can also be used, such as porcine lactate dehydrogenase (LDH) 1, human lactate dehydrogenase (LDH) 1, and human lactate dehydrogenase (LDH) 5. The LDH catalyzes dehydrogenation of lactic acid as a substrate, to convert the lactic acid to pyruvic acid. At this time, the β-NMN is converted to a reduced form of β-NMN (see FIG. 1).
In the present invention, the enzymatic reactivity refers to a value obtained through measurement using the following reagents and method.
(The purity of the β-NMN in a measurement sample is assumed to be 100%. Also, the β-NMN is dissolved in an 80 mM sodium carbonate solution in advance.)
The enzyme solution is prepared so that the LDH is to be 245 U/mL as a final concentration in a reaction liquid.
In the present invention, the activity unit (U) of the LDH is an activity unit measured by the human LDH measurement method according to IFCC when using NAD as a coenzyme.
An enzyme activity is measured using a 7180 type Hitachi automatic analyzer (obtained from Hitachi High-Tech Corporation). Measurement parameters are as follows.
Analysis method: Rate A Measurement wavelength (sub/main): 405 nm/340 nm Reaction duration: 10 minutes Photometric points: 20 to 24 Sample liquid (enzyme solution): 18 μL R1 reagent: 120 μL R2 reagent: 87 μL
18 μL of the enzyme solution and 120 μL of the R1 reagent are mixed. The resulting mixture is incubated at 37° C. for 4.5 minutes (photometric points 1 to 16), followed by addition of 87 μL of the R2 reagent, to initiate reaction (photometric point 17). From the absorbance of the measurement sample one to two minutes after initiation of the reaction (photometric points 20 to 24), the absorbance of water (blank) at the same photometric points is subtracted, to calculate a value of change in absorbance per minute (ΔmAbs/min). Regarding the activity unit (the unit of reactivity with the lactate dehydrogenase R-LDH5), 0.1 mAbs as the value of change in absorbance per minute is defined as one unit.
By the following method, the β-NMN compound of the present invention (Production Example 1) and β-NMN products 1 to 3 were measured for the enzymatic reactivity with R-LDHS (SEQ ID NO: 1). Note that, the measurement results are average values in the measurement performed three times.
(The purity of the β-NMN in a measurement sample was assumed to be 100%. Also, the β-NMN was dissolved in an 80 mM sodium carbonate solution in advance.)
The enzyme solution was prepared so that the R-LDH5 was to be 245 U/mL as a final concentration in a reaction liquid.
An enzyme activity was measured using a 7180 type Hitachi automatic analyzer (obtained from Hitachi High-Tech Corporation). Measurement parameters are as follows.
Analysis method: Rate A Measurement wavelength (sub/main): 405 nm/340 nm Reaction duration: 10 minutes Photometric points: 20 to 24 Sample liquid (enzyme solution): 18 μL
18 μL of the enzyme solution and 120 μL of the R1 reagent were mixed. The resulting mixture was incubated at 37° C. for 4.5 minutes (photometric points 1 to 16), followed by addition of 87 μL of the R2 reagent, to initiate reaction (photometric point 17). Measurements were taken for five minutes after initiation of the reaction. From the absorbance of the measurement sample at minute one to minute two after the initiation (photometric points 20 to 24), the absorbance of water (blank) at the same photometric points was subtracted, to calculate a value of change in absorbance per minute (ΔmAbs/min). Regarding the activity unit, 0.1 mAbs as the value of change in absorbance per minute was defined as one unit. […]

[2] = biological target: R-LDH5 (lactate dehydrogenase, SEQ ID NO: 1) (Oryctolagus cuniculus, UniProt P13491, L277I/T249S); assay: Dependency of LDH activity value on β-NMN compound concentration, R-LDH5 (Test Example 4); format: biochemical; settings: R-LDH5 245 U/mL; for relative activity value of LDH, dependency on β-NMN concentration: 0-200 mM β-NMN in R1 reagent, compared with Production Example 1, FIGS. 4B, 4C
Protocol: (§1) In order to confirm dependency of a LDH activity value on the β-NMN compound concentration, the β-NMN compound produced in Production Example 1 and β-NMN products 1 to 3 the same as those used in Test Example 1 were used for measurement of an enzyme activity of LDH at varied concentrations of the β-NMN in the R1 reagent.
(§2) The enzyme activity of LDH was measured in the same manner as in [Evaluation of enzymatic reactivity] of Test Example 1 except that the following R1 reagent and enzyme solution were used, to calculate a value of change in absorbance per minute (ΔmAbs/min). Regarding as 100% the activity value of LDH when the β-NMN compound of Production Example 1 was used at 200 mM, the relative activity values (%) in each NMN at each concentration are presented in FIGS. 4A to 4F (FIGS. 4A to 4C: R-LDH5 and FIGS. 4D and 4F: human LDH1). Note that, the measurement results are average values in the measurement performed three times.
(§3) (The purity of the β-NMN in a measurement sample was assumed to be 100%. Also, the β-NMN was dissolved in a 100 mM sodium carbonate solution in advance.)
An enzyme solution was prepared so that the LDH was to be 245 U/mL as a final concentration in a reaction liquid.

[3] = biological target: human lactate dehydrogenase (LDH) 1 (SEQ ID NO: 2) (Homo sapiens, UniProt P07195); assay: Dependency of LDH activity value on β-NMN compound concentration, human LDH1 (Test Example 4); format: biochemical; settings: human LDH1 45 U/mL; 0-200 mM β-NMN in R1 reagent; compared with Production Example 1; FIGS. 4D to 4F
Protocol: as §1, §2, §3
An enzyme solution was prepared so that the LDH was to be 45 U/mL as a final concentration in a reaction liquid.

[4] = tested on: HEK293 cells; assay: Cytotoxicity rate from intra- and extracellular AST activities in culture cells (Test Example 5); format: cell-based; settings: nonadherent HEK293 cells; 0.1 mM β-NMN; shake-cultured seven days without exchange of the medium; FIGS. 5A, 5B
[5] = tested on: HEK293 cells; assay: Intracellular NAD content in culture cells (Test Example 5); format: cell-based; settings: nonadherent HEK293 cells; 0.1 mM β-NMN; shake-cultured seven days without exchange of the medium; FIGS. 6A, 6B
Protocol: In order to evaluate biological activities of the β-NMN compounds of Production Example 1 and the β-NMN product 3, culture cells were cultured in a medium containing the β-NMN compound, to measure change in intracellular NAD.
The culture cells used were HEK293 cells that had been treated to be nonadherent. The medium used was FreeStyle™ 293 Expression Medium (obtained from Thermo Fisher Scientific).
First, the HEK293 cells, which had been treated to be nonadherent, were disseminated in the medium so as to have a concentration of 1×10^6 cells/mL. The resulting medium was dispensed into six 125 mL-flasks by 30 mL each. The flasks were supplemented with the β-NMN compounds of Production Example 1 and the β-NMN product 3 so as to have a final concentration of 0 or 0.1 mM. Without exchange of the medium, the cells were shake-cultured for seven days in a CO2 incubator at 37° C.
After shake-culturing for seven days, the cells and the culture supernatant were recovered for various analyses. […] Specifically, the recovered cells were weighed and were extracted with Extraction buffer attached to a kit, and the resulting extract was measured for NAD. The intracellular NAD content was calculated based on a calibration curve obtained by measuring NAD solutions of various concentrations.

Sequence of human lactate dehydrogenase (LDH) 1 (SEQ ID NO: 2) (P07195 whole entry): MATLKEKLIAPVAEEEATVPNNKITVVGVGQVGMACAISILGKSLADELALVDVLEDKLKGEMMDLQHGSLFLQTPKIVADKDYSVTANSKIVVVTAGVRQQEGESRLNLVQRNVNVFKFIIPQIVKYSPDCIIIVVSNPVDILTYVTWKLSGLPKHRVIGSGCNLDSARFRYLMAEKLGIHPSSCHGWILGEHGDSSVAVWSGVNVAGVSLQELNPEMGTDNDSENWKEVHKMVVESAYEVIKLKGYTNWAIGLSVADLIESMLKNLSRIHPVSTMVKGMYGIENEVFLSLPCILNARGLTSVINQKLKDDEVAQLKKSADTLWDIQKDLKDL

SMILES: NC(=O)c1ccc[n+]([C@@H]2O[C@H](COP(=O)([O-])O)[C@@H](O)[C@H]2O)c1 [Production Example 2, β-nicotinamide mononucleotide]
Enzymatic reactivity (unit) [1]: 40 unit

SMILES: NC(=O)c1ccc[n+]([C@@H]2O[C@H](COP(=O)([O-])O)[C@@H](O)[C@H]2O)c1 [Production Example 1, β-nicotinamide mononucleotide]
cytotoxicity rate determined based on intra- and extracellular AST activities [4]: lower when the β-NMN compound of Production Example 1 was added than when the β-NMN compound of the β-NMN product 3 was added
intracellular NAD content [5]: higher when the β-NMN compound of Production Example 1 was added than when the β-NMN compound of the β-NMN product 3 was added
Enzymatic reactivity (unit) [1]: 39 unit

SMILES: NC(=O)c1ccc[n+]([C@@H]2O[C@H](COP(=O)([O-])O)[C@@H](O)[C@H]2O)c1 [Production Example 4, β-nicotinamide mononucleotide]
Enzymatic reactivity (unit) [1]: 35 unit

SMILES: NC(=O)c1ccc[n+]([C@@H]2O[C@H](COP(=O)([O-])O)[C@@H](O)[C@H]2O)c1 [Production Example 3, β-nicotinamide mononucleotide]
Enzymatic reactivity (unit) [1]: 38 unit

More lines, main results first:

enzymatic activity of LDH at a β-NMN concentration of 200 mM ([2]; 200 mM β-NMN in R1 reagent, FIG. 4A): could not be measured
Enzymatic reactivity (unit) [1]: 23 unit
SMILES: NC(=O)c1ccc[n+]([C@@H]2O[C@H](COP(=O)([O-])O)[C@@H](O)[C@H]2O)c1 [β-NMN product 1, β-nicotinamide mononucleotide]
relative activity value of LDH, dependency on β-NMN concentration [3]: larger differences in the activity value from the β-NMN compound of Production Example 1 as the β-NMN concentration increased

Enzymatic reactivity (unit) [1]: 26 unit
SMILES: NC(=O)c1ccc[n+]([C@@H]2O[C@H](COP(=O)([O-])O)[C@@H](O)[C@H]2O)c1 [β-NMN product 3, β-nicotinamide mononucleotide]
relative activity value of LDH, dependency on β-NMN concentration [2]: the difference in the activity value from the β-NMN compound of Production Example 1 became larger as the β-NMN concentration increased
relative activity value of LDH, dependency on β-NMN concentration [3]: larger differences in the activity value from the β-NMN compound of Production Example 1 as the β-NMN concentration increased

Enzymatic reactivity (unit) [1]: 27 unit
SMILES: NC(=O)c1ccc[n+]([C@@H]2O[C@H](COP(=O)([O-])O)[C@@H](O)[C@H]2O)c1 [β-NMN product 2, β-nicotinamide mononucleotide]
relative activity value of LDH, dependency on β-NMN concentration [2]: the difference in the activity value from the β-NMN compound of Production Example 1 became larger as the β-NMN concentration increased
relative activity value of LDH, dependency on β-NMN concentration [3]: larger differences in the activity value from the β-NMN compound of Production Example 1 as the β-NMN concentration increased
